Results as given in patent publication US10398706B2, “Heteroaryldiazepine derivatives as RSV inhibitors” (Enanta Pharmaceuticals, Inc., priority 2017, dated 2019).

Tested on: Human RSV-A (“Long” strain)
Assay: RSV-A in vitro cytoprotection assay in HEp-2 cells (ATPlite readout)
Assay type: cell-based, Human respiratory syncytial virus
Settings: HEp-2 cells, 4-day incubation, ATPlite cell viability; read-out: Human RSV-A (“Long” strain) EC50
Excerpt: RSV is a single stranded negative sense RNA virus that causes respiratory tract infections which can be dangerous to infants, the elderly, and immunosuppressed individuals. Currently there is no vaccine, and therapeutic options are both costly and of limited effectiveness. These approved treatments are Ribavirin, and Palivizumab/Synagis (a monoclonal antibody). RSV has two genotypes, A and B, which differ primarily in the structure of the virus' surface “G” attachment protein. Our current primary screen focusses on RSV-A and uses an in vitro cytoprotection assay where compounds are added in 2-fold dilutions to cells which are then subjected to fully replicative viral particles. Cell viability is measured several days later along with separate measurements of compound cytotoxicity. This report focuses on the results of our most recent screening of compounds.
HEp-2 cells, (originally derived from tumors grown in irradiated-cortisonised weanling rats that had been injected with epidermoid carcinoma tissue from a person's larynx, but later found to be indistinguishable from HeLa cells by PCR DNA analysis), were used for the culturing of genotype A, “Long” strain RSV. Flasks were inoculated with RSV and viral stocks were collected once cytopathic effect (CPE) was greater than 90%. Viral stocks in 25% sucrose media were snap frozen using liquid nitrogen to increase viral stability. Viral stock titers were quantified by tissue culture infectious dose 50% (TCID50) using 8,000 cells per well and 3-fold viral dilutions across a 96-well plate, cultured for 4 days.
Following extensive parameter testing, the final assay is run as follows: HEp-2 cells are seeded into the inner 60 wells of a 96-well plate at 8,000 cells per well in a volume of 50 μL using Growth Media (DMEM without phenol red, 1% L-Glut, 1% Penn/Strep, 1% nonessential amino acids, 10% FBS). 2-fold serial dilutions of control and test compounds are added to the wells in duplicate in a total volume of 25 μL. Viral stock is then added to the wells in a volume of 25 μL, bringing the total volume of each well to 100 μL. Each 96-well plate has a control column of 6 wells with cells and virus but no compound (negative control, max CPE), a column with cells but no compound or virus (positive control, minimum CPE), and a column with no cells or virus or compound (background plate/reagent control). The control wells with cells but no virus are given an additional 25 uL of growth media containing an equal quantity of sucrose as those wells receiving the viral stock in order to keep consistent in media and volume conditions. The outer wells of the plate are filled with 125 μL of growth media to act as a thermal and evaporative moat around the test wells. Following a 4-day incubation period, the plates are read using ATPlite (50 uL added per well), which quantifies the amount of ATP (a measure of cell health) present in each well. Assay plates are read using the Envision luminometer. […] EC50 ranges are as follows: A<0.4 μM; B 0.4-0.8 μM; C>0.8 μM.

| SMILES | EC50 [nM] |
| --- | --- |
| Cc1cc2c(s1)NC(=O)[C@@H](Nc1nnc(-c3ncc(C(F)(F)F)cc3N3CCOCC3)o1)N=C2c1ccccc1 [Example 6] | < 400 |
| Cc1sc2c(c1C)C(c1ccccc1)=N[C@H](Nc1nnc(-c3ncc(C(F)(F)F)cc3N3CCOCC3)o1)C(=O)N2 [Example 8] | 400 to 800 |

Same assay, conditions: human respiratory syncytial virus, HEp-2, 96 h, read-out: Human RSV-A (“Long” strain) EC50

| SMILES | EC50 [nM] |
| --- | --- |
| O=C1Nc2cccnc2C(c2ccccc2)=NC1Nc1nnc(-c2ccccc2)o1 (stereo not shown) [Example 1] | > 800 |
| O=C1Nc2ncccc2C(c2ccccc2)=NC1Nc1nnc(-c2ccc(F)cc2)o1 (stereo not shown) [Example 2] | > 800 |
| O=C1Nc2cnccc2C(c2ccccc2)=NC1Nc1nnc(-c2ccc(F)cc2)o1 (stereo not shown) [Example 3] | > 800 |
| O=C1Nc2ccsc2C(c2ccccc2)=NC1Nc1nnc(-c2ncc(C(F)(F)F)cc2N2CCOCC2)o1 (stereo not shown) [Example 4] | 400 to 800 |
| O=C1Nc2sccc2C(c2ccccc2)=NC1Nc1nnc(-c2ncc(C(F)(F)F)cc2N2CCOCC2)o1 (stereo not shown) [Example 5] | 400 to 800 |
